Common to all, as to experiment: NCI-60 cell line screen, 48 h
Experiment [1] relates to A549 NSCLC.
In experiment [2] the test system is HCT-15 colon.
The subject of experiment [3] is MDA-MB-435.
Experiment [4] concerns SF-268 CNS.
For experiment [5], the system named is SF-295 CNS.
The subject of experiment [6] is SK-MEL-2 melanoma.
Experiment [7] deals with SW-620 colon.
The test system of experiment [8] is T-47D breast.
Experiment [9] has as its system CCRF-CEM leukemia.
Experiment [10] concerns NCI-H522 lung.

Molecules are shown by their SMILES.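 Dose response: 5 concentrations. Exposure: 48 h. Format: 96-well plates. Endpoint: linear interpolation; highest concentration if not reached. GI50 = concentration required for 50% inhibition of growth. Definition used: TGI = concentration required for complete inhibition of growth.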

With `CCOC(=O)C(/C=N/C(N)=S)=C(/O)c1ccccc1`, the TGI in experiment [1], in [2], in experiment [3], in [4], in experiment [5] and in experiment [6] was over 100 µM each time. The TGI in [7] and in experiment [8] was over 100 µM each time.

As for `O=C1CSC2(CC(/C=C/c3ccccc3[N+](=O)[O-])=NN2c2cccc(S(=O)(=O)O)c2)N1c1nc2ccccc2s1` (configuration not stated), the TGI in experiment [1] was 52.9 µM; in [9], 43.5 µM; in [2], 35 µM; in experiment [3] it was 28.1 µM; in experiment [10], 22.1 µM; in experiment [4], 41.1 µM. Besides, the TGI was 35.4 µM in [6], over 75 µM in experiment [7] and 30.6 µM in experiment [8].

Consider `O=CC1C(=O)Nc2nc3ccccc3n2C1c1ccccc1` (configuration not stated), for which the TGI in experiment [1] stood at 95.4 µM; in experiment [9] it was 75.2 µM; in [2], 37 µM; in experiment [3], 44.8 µM; in experiment [10] it was 26.3 µM; in experiment [4], 27 µM. The TGI was determined as 43.8 µM in [5], 43.7 µM in experiment [6] and 43.3 µM in experiment [7].

Turning to `COc1cc2oc(=O)cc(C)c2c(OC)c1OC`, the TGI in [1], in experiment [9], in [2], in experiment [3], in experiment [4] and in [5] was over 100 µM throughout. Further, the TGI in [6] and in experiment [7] was over 100 µM throughout.

As to `O=C(CN1CCOCC1)c1ccc2c(c1)oc(=O)n2CCN1CCCCC1`, the TGI in [9], in experiment [2], in experiment [3], in experiment [4], in experiment [5] and in [6] was over 100 µM throughout. Besides, the TGI in [7] was over 100 µM.

Regarding `COc1cc(C2C(Cl)C(=O)N2NC(=O)c2ccccc2O)cc(OC)c1OC` (configuration not stated), the TGI in experiment [1] is over 10 µM; in experiment [9] it was over 10 µM; in experiment [3], over 10 µM; in experiment [10] it was 8.21 µM; in experiment [4] it was over 10 µM; in experiment [5] it was 8.43 µM. Besides, the TGI in experiment [7] is over 10 µM.

For the compound `CC(=O)Nc1ccc2cc3c(nc2n1)c1cccnc1n3S(=O)(=O)c1ccccc1`, the TGI in experiment [1], in experiment [9], in experiment [2], in [3], in experiment [10] and in experiment [4] was over 100 µM throughout. Moreover, the TGI in experiment [5], in experiment [6] and in experiment [7] was over 100 µM in each case.

Take `O=C(O)Cc1ccc(-n2nnc3c(=O)[nH][nH]c(=O)c32)cc1`: the TGI in experiment [1], in experiment [9], in experiment [2], in experiment [3], in [5] and in experiment [6] was over 100 µM in each case.

Turning to `O=c1[nH]nc(-c2ccccc2)c2[nH]c3c(c12)CCCc1ccccc1-3`, the TGI in [1] was 25.6 µM; in [9], 47.2 µM; in experiment [2] it was 10.4 µM; in [3] it was 29.6 µM; in experiment [10], 27.1 µM; in experiment [4], over 100 µM. In addition, the values for the TGI in experiment [5], in experiment [7] and in experiment [8] were 57.5 µM, 50.8 µM and 57.5 µM, respectively.

On to `CN(C)CCNc1nc2c(c(=O)n(C)c(=O)n2C)n1C`, for which the TGI in [1], in experiment [9], in [2], in experiment [3], in experiment [10] and in experiment [4] was over 100 µM throughout. In addition, the TGI in experiment [5], in experiment [7] and in experiment [8] was over 100 µM in each case.

With `CN=C(NC#N)NCc1ccccc1`, the TGI in [1], in experiment [9], in experiment [2], in experiment [10], in experiment [4] and in experiment [5] was over 100 µM each time. In addition, the TGI in experiment [6] and in [7] was over 100 µM in each case.

For `CSc1c(C#N)c(=O)n(N)c2n[nH]c(C)c12`, the TGI in [1], in experiment [9], in experiment [2], in experiment [3], in experiment [10] and in experiment [4] was over 100 µM in each case. Further, the TGI in experiment [6], in experiment [7] and in [8] was over 100 µM throughout.

Turning to `COc1cc(/C=C2\CCCC3=C2N=C2SC=NN2C3c2cc(OC)c(OC)c(OC)c2)cc(OC)c1OC` (configuration not stated), the GI50 in [1] is 2950 nM; in experiment [9] it was 3.17 µM; in [2] it was 2250 nM; in [3] it was 2040 nM; in experiment [10] it was 2.72 µM; in experiment [4] it was 3480 nM. In addition, the GI50 in experiment [6] was 3.46 µM; in experiment [8], 3.9 µM. Also, the TGI in experiment [1] is over 100 µM; in experiment [9], over 100 µM; in [2], 5.91 µM; in experiment [3], 5.17 µM; in experiment [10], 8.51 µM; in experiment [4], over 100 µM. The TGI in experiment [6] and in [8] was over 100 µM in each case.

As to `COc1ccc(C(CC(=O)c2ccc(O)cc2)C(C(=O)c2ccc(O)cc2)C(c2ccc(OC)cc2)C2C(=O)NC(=S)NC2=O)cc1` (configuration not stated), the TGI came to 89.9 µM in [1]; 36 µM in experiment [9]; 45.3 µM in [2]; 61.2 µM in experiment [3]; 29.9 µM in [10]; 35.3 µM in experiment [4]. The results for the TGI in experiment [5], in [6] and in experiment [7] were 52.3 µM, 70.8 µM and 55.7 µM, respectively.

Turning to `COc1ccc(/C=C2\NC(=S)N(CN3CCOCC3)C2=O)cc1`, the TGI in experiment [1], in experiment [9], in experiment [2], in experiment [3], in experiment [4] and in [5] was over 100 µM in each case. For the same compound, the TGI in experiment [6] and in experiment [7] was over 100 µM throughout.

Regarding `COc1ccc([C@H]2C=C(c3cc(F)c(Cl)cc3Cl)N=c3s/c(=C\c4ccc(-c5ccc(Cl)cc5Cl)o4)c(=O)n32)cc1`, the TGI in [1], in [2], in experiment [3], in [10], in [4] and in experiment [5] was over 100 µM each time. In addition, the TGI is 48.3 µM in experiment [6], over 100 µM in [7] and over 100 µM in experiment [8].

`O=[N+]([O-])c1ccc(N/N=C\c2ccc(O)cc2O)nc1`: the GI50 in experiment [1] is 2470 nM; in experiment [2], 828 nM; in [3], 3140 nM; in experiment [10], 10.8 µM; in experiment [4], 1210 nM; in experiment [5] it was 2960 nM. The GI50 in [6] is 5.21 µM; in experiment [7], 2690 nM; in [8], 4.04 µM. For the same compound, the TGI in experiment [1], in [2], in experiment [3], in experiment [10], in [4] and in experiment [5] was over 100 µM each time. Moreover, the TGI in experiment [6], in experiment [7] and in experiment [8] was over 100 µM throughout.

Consider `COC(=O)c1cc(OCc2cc(OCc3ccc(Br)cc3)cc(OCc3ccc(Br)cc3)c2)cc(OCc2cc(OCc3ccc(Br)cc3)cc(OCc3ccc(Br)cc3)c2)c1`, for which the TGI in experiment [1], in experiment [2], in experiment [3], in [10], in [4] and in experiment [5] was over 100 µM throughout. Moreover, the TGI in [6] and in experiment [8] was over 100 µM each time.

For the compound `CSc1nnc2n1-c1ccccc1SCC2`, the TGI in experiment [1], in experiment [9], in [2], in [10], in experiment [4] and in [5] was over 100 µM in each case. In addition, the TGI in experiment [6] and in experiment [7] was over 100 µM in each case.

With `Cc1cccc(C)c1NC(=O)/C(CC(=O)CC(c1ccccc1)c1c(O)c2ccccc2oc1=O)=N/O` (configuration not stated), the TGI in experiment [1], in experiment [9], in [2], in experiment [3], in experiment [10] and in experiment [4] was over 100 µM each time. In addition, the TGI in experiment [5], in experiment [6] and in experiment [7] was over 100 µM in each case.

On to `COc1ccccc1N1C(=O)/C(=C\c2ccccc2)SC1c1cc(OC)c(OC)c(OC)c1` (configuration not stated), for which the TGI is over 100 µM in experiment [1]; over 100 µM in experiment [2]; 46.5 µM in experiment [3]; 74.3 µM in experiment [10]; over 100 µM in experiment [4]; over 100 µM in experiment [5]. In addition, the TGI in experiment [6] is 33 µM; in experiment [8] it was 37.8 µM.

As for `C[C@H](OC(=O)/C=C/c1ccc(O)c(O)c1)[C@H](C)OC(=O)/C=C/c1ccc(O)c(O)c1`, the TGI is over 100 µM in experiment [1]; 25.9 µM in [2]; 77.3 µM in experiment [3]; 35.1 µM in experiment [10]; 34.5 µM in experiment [4]; 19.8 µM in experiment [5]. In addition, the TGI in [6] was 50.3 µM; in experiment [7] it was 17.8 µM; in experiment [8], over 100 µM.

For `COC(=O)C1=C(C(=O)OC)C2CCC1CC2=O` (configuration not stated), the TGI in [1], in experiment [9], in [2], in experiment [3], in [10] and in [4] was over 100 µM in each case. For the same compound, the TGI in experiment [5], in [6] and in experiment [7] was over 100 µM throughout.

For the compound `COC1=C2C[C@](OC)(C#CC=CC#CC2O)CC1(C)C` (some centres not stated), the TGI in experiment [1], in experiment [9], in [2], in [3], in [10] and in experiment [4] was over 100 µM throughout. Besides, the TGI in [5], in experiment [7] and in experiment [8] was over 100 µM throughout.

`CC1=NN(c2cccc(S(=O)(=O)O)c2)C2(C1)SCC(=O)N2c1nc2ccccc2s1` (configuration not stated): the TGI in [1], in [2], in experiment [3], in experiment [10], in [4] and in experiment [5] was over 100 µM each time. Besides, the TGI in experiment [6], in [7] and in experiment [8] was over 100 µM in each case.

In the case of `NCCCCNCCCNC(=O)c1csc(-c2nc(CCN)sc2Cl)n1`, the TGI in [1], in experiment [9], in experiment [2], in experiment [3], in [4] and in experiment [5] was over 100 µM each time. Also, the TGI in experiment [7] and in [8] was over 100 µM each time.

`O=C(CCCN1CCC(Nc2ccc(F)cc2)(c2nnnn2C2CCCCC2)CC1)c1ccc(F)cc1`: the TGI in experiment [1] was 31.6 µM; in experiment [9], over 100 µM; in experiment [2], 42.4 µM; in experiment [3] it was 31.5 µM; in experiment [10], 29.8 µM; in [4], 33.9 µM. For the same compound, the values for the TGI in [5], in [6] and in [7] were 40.9 µM, 40.7 µM and over 100 µM, respectively.

As to `COC(=O)Cc1c(-c2c(CC(=O)OC)c3ccccc3n2C2OC(COC3OC(COC(C)=O)C(OC(C)=O)C(OC(C)=O)C3OC(C)=O)C(O)C(O)C2O)[nH]c2ccccc12` (configuration not stated), the TGI is over 100 µM in experiment [1]; over 100 µM in experiment [9]; over 100 µM in experiment [2]; over 100 µM in [3]; over 100 µM in [5]; 64.7 µM in experiment [6]. Besides, the TGI in experiment [7] and in experiment [8] was over 100 µM each time.

Values taken from PubChem BioAssay (NCI).
